Data taken from publication PMC9303367, “Synthesis of Aminoethyl‐Substituted Piperidine Derivatives as σ1 Receptor Ligands with Antiproliferative Properties” (Chemmedchem, 2022).
Where two headings read alike, the source gives them in different places.

Columns and labels:
[1] = molecular target: T1, σ1 receptor (Cavia porcellus, UniProt Q60492); assay: σ1 receptor radioligand binding assay ([3H]-(+)-pentazocine, guinea pig brain homogenate); conditions: for Ki: guinea pig brain, [3H]-(+)-pentazocine, piperidines tested as cis/trans mixtures; for σ1 : σ2 selectivity: Ki(σ2)/Ki(σ1)
T1 construct: The thawed membrane preparation of guinea pig brain cortex; tissue Harlan-Winkelmann, Borchen, Germany; host or cells: guinea pig brain (cortex) membrane homogenate

[2] = molecular target: T2, σ2 receptor (Rattus norvegicus, UniProt Q5U3Y7); assay: σ2 receptor radioligand binding assay ([3H]DTG with excess (+)-pentazocine, rat liver membranes); conditions: for inhibition at 1 µM: test compound concentration 1 μM; for Ki: read-out: σ2 affinity K i±SEM (n=3), rat liver membranes, [3H]DTG + (+)-pentazocine
T2 construct: The thawed rat liver membrane preparation; tissue Harlan-Winkelmann, Borchen, Germany; host or cells: rat liver membrane preparation
T2 sequence (Q5U3Y7 1-176): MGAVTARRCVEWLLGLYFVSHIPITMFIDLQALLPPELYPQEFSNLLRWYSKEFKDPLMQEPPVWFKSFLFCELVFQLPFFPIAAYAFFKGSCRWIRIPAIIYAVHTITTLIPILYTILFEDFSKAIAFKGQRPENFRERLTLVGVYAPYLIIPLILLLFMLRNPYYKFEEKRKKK

[3] = logD7.4 by micro shake flask method (n-octanol / MOPS buffer pH 7.4, MS); type: physicochemical; conditions: read-out: logD7.4 (exp., n=3)
Protocol: However, the penalty for increased hydrolytic stability and σ1 receptor affinity of tetrahydropyrans 2 and cyclohexanes 3 is an increased molecular lipophilicity. In Figure 1 the calculated clogP values of the σ1 ligands 1–3 and one designed piperidine 4 a are summarized. In order to confirm the predicted clogP values, the logD7.4 values of the σ1 ligands 1–4 a were also determined experimentally using the micro shake flask method.[39, 40]
In order to argue with reliable lipophilicity values, the logD7.4 values of key compounds were determined experimentally following our micro‐shake‐flask protocol.[39, 40] According to this method, each compound of interest was distributed between an n‐octanol layer and an aqueous MOPS buffer pH 7.4. Subsequently, the amount of compound in the buffer layer was determined by mass spectrometry.

[4] = water solubility; type: physicochemical; conditions: at higher concentrations
[5] = tested on: human non-small cell lung cancer cell line A427; assay: A427 tumor cell proliferation (confluence) assay, IncuCyte S3 live cell imaging
Protocol: In particular the confluence and IC 50 values were determined.
Live Cell imaging using the IncuCyte® S3 Live Cell Analysis System
The measurement of the cell confluence and the determination of the IC50 values were
performed with the IncuCyte® S3 Live Cell Analysis System (Essen BioScience, Ltd.,
Royston, Hertfordshire, UK)
5.4. Preparation of 96-well plates
For the preparation of the 96-well plates for the Live Cell Imager, A427 cells from the flask
were detached and centrifuged. The pellet was resuspended in 20 mL of the medium
using the vortexer. 1 mL was used to determine the number of cells and the volume
required for 8,000-12,000 cells was calculated. This volume was then added to each well
Switzerland) and the well was filled up to a total volume of 150 µL with medium.
At a confluence of 30-40 % the test compounds were added. Dilutions of concentrations
of 200, 100, 40, 20, 10 and 4 µM were prepared in medium with 2 % DMSO. 50 µL of
each dilution were added to the wells, resulting in a final assay concentration of 50, 25,
10, 5, 2.5 and 1 µM, respectively. Each concentration was measured in triplicates on each
plate and on three different days.
5.5. Measurement of cell confluence
The cell confluence was measured using the IncuCyte® S3. For the scanning with the
at a 10-fold magnification. Four pictures were taken from each well every 2 h until the
growth curve of the cells reached a plateau (approx. 5 d). The mask for the analysis of
adjustment size of -1 pixel and an area filter of minimum 200 µm2. After the analysis, a
graph showing the development of the confluence over time was produced.
5.6. Competitive confluence assay
The plates were prepared as described above with the exception that the cells were grown
in 100 µL instead of 150 µL of medium. After the cell confluence reached 30-40 %, the
(final concentration: 10 µM).

[6] = molecular target: T1, σ1 receptor; conditions: cited from earlier work
[7] = molecular target: T2, σ2 receptor; conditions: lead compounds 1–3; read-out: σ2 affinity K i±SEM; cited from earlier work
[8] = tested on: androgen negative human prostate cancer cells DU145; assay: DU145 cell growth inhibition, sulforhodamine B staining, 72 h; type: cell-based; conditions: 72 h incubation, n=3, read-out: cytotoxicity (DU145) IC 50
Protocol: In the assay, DU145 tumor cells were incubated in 96‐well plates for 24 h. Different concentrations of the test compounds were added and after incubation for additional 72 h, the amount of living cells was recorded by staining with Sulforhodamine B.[62] In Table 3 the activity of the prototypical σ1 antagonists NE‐100 and S1RA is included.
6. Growth inhibition of DU145 tumor cells
DU145 cells were purchased from ATCC and maintained in adherent conditions in RPMI 1640 medium (21875-034, Gibco®) supplemented with 2 % (S)-glutamine, 10 % fetal […]
Gibco®). For the proliferation assays, DU145 cells were seeded at a density of 2 x 10^3 cells/well in 96-well tissue culture plates. 24 h later, the cells were treated with the […]
Then, the cells were fixed with 10 % (w/v) trichloroacetic acid and stained with sulforhodamine B for 30 min. The excess of the dye was removed by washing repeatedly with 1 % (v/v) acetic acid and the protein-bound dye was solubilized with Tris base solution for optical density (OD) measurement at 510 nm with a microplate reader. Cell proliferation and viability were expressed as percentages relative to those of DMSO treated cells. The data represent the results from three independent experiments. Statistical analysis was done using T-test and Anova. Figure […]
and two reference σ1 receptor antagonists.

[9] = tested on: σ1 receptor; parameters: method as in PMID 21444132, PMID 21598296; conditions: mouse capsaicin assay; cited from earlier work
[10] = molecular target: σ1 receptor; conditions: read-out: σ1 affinity K i±SEM, cited from earlier work
[11] = read-out: σ1 affinity K i±SEM (n=3)
[12] = lead compounds 1–3 (enantiomers), read-out: σ1 affinity K i±SEM

T1 sequence (Q60492 whole entry): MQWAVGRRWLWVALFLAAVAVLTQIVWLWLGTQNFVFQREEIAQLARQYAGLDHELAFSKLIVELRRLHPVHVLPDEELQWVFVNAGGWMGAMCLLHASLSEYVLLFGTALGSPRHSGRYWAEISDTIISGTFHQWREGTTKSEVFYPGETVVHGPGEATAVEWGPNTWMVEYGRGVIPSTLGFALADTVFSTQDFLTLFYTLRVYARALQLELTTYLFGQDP

With `c1ccc(CCCNCCC2CCNC(c3ccccc3)C2)cc1` (stereo not drawn) [4b, cis‐ and trans‐N‐(3‐Phenylpropyl)‐2‐(2‐phenyl‐piperidin‐ 4‐yl)ethan‐1‐amine] the Ki ([1]; σ1 affinity K i±SEM (n=3)) was 849 nM and the inhibition at 1 µM [2] was 0%.
In the case of `CN1CC[C@H](CCNCCCc2ccccc2)C[C@@H]1c1ccccc1` [19a, cis‐N‐(2‐(1‐Methyl‐2‐phenylpiperidin‐4‐yl)‐ethyl)‐3‐ phenylpropan‐1‐amine], the “σ1 : σ2 selectivity” value [1] is reported as >20, the Ki ([1]; σ1 affinity K i±SEM (n=3)) is reported as 50 ± 17 nM and the inhibition at 1 µM [2] is reported as 0%.
With `c1ccc(CNCCC2CCNC(c3ccccc3)C2)cc1` (stereo not drawn) [4a, cis‐ and trans‐N‐Benzyl‐2‐(2‐phenylpiperidin‐4‐yl)ethan‐1‐amine] the Ki [1, 11] was 165 nM, the Ki [2] was 372 nM and the logD [3] was -0.79 ± 0.07. For the same compound, the water solubility [4] was “good water solubility”, the IC50 ([5]; Homo sapiens, A-427, 120 h, read-out: Inhibition of cell confluency IC50 ± SD, A427 cells, last time point (approx. 5 d), n = 3) was 18000 nM and the “functional behaviour at σ1 receptor in A427 tumor cell proliferation assay” value ([5]; effect reduced by σ1 agonist (+)-pentazocine (10 μM)) was “σ1 receptor antagonist”. It also gave an IC50 ([5]; read-out: Inhibition of cell confluency IC50 ± SD, A427 cells, last time point (approx. 5 d), n = 3) of 17000 nM.
For `CN1CCC(CCNCc2ccccc2)CC1c1ccccc1` (stereo not drawn) [18a, cis‐ and trans‐N‐Benzyl‐2‐(1‐methyl‐2‐phenyl‐piperidin‐ 4‐yl)ethan‐1‐amine], the “σ1 : σ2 selectivity” value [1] was 61, the Ki [1, 11] was 7.9 ± 0.2 nM and the logD [3] was 0.52 ± 0.01.
For `c1ccc(CNCCC2CCCC(c3ccccc3)O2)cc1` (stereo not drawn) [compound 2], the logD [3] is listed as 2.52 ± 0.05, the Ki [6, 12] is listed as 1.6 ± 0.2 nM and the Ki [7] is listed as 378 nM.
For `CN(CCC1CCN(C)C(c2ccccc2)C1)Cc1ccccc1` (stereo not drawn) [21a, cis‐ and trans‐N‐Benzyl‐N‐methyl‐2‐(1‐methyl‐ 2‐phenylpiperidin‐4‐yl)ethan‐1‐amine], the “σ1 : σ2 selectivity” value [1] was 4, the Ki [1, 11] was 19 ± 9 nM and the Ki ([1]; σ1 affinity K i±SEM (n=3)) was < 27 nM. The Ki [2] was 77 ± 5 nM and the IC50 ([8]; Homo sapiens, DU-145) was 5500 nM.
In the case of `CN1CCC(CCNCC2CCCCC2)CC1c1ccccc1` (stereo not drawn) [20a, cis‐ and trans‐N‐(Cyclohexylmethyl)‐2‐(1‐methyl‐ 2‐phenylpiperidin‐4‐yl)ethan‐1‐amine], the “σ1 : σ2 selectivity” value [1] is reported as 18, the Ki ([1]; σ1 affinity K i±SEM (n=3)) is reported as 16 ± 5 nM and the IC50 ([8]; Homo sapiens, DU-145) is reported as 4900 nM.
With `CCN1CCC(CCNCc2ccccc2)CC1c1ccccc1` (stereo not drawn) [18b, cis‐ and trans‐N‐Benzyl‐2‐(1‐ethyl‐2‐phenyl‐piperidin‐ 4‐yl)ethan‐1‐amine] the “σ1 : σ2 selectivity” value [1] was 1 and the Ki ([1]; σ1 affinity K i±SEM (n=3)) was 129 ± 38 nM.
In the case of `c1ccc(CNCCC2CCOC(c3ccccc3)O2)cc1` (stereo not drawn) [compound 1], the logD [3] is given as 1.36 ± 0.02, the Ki ([6]; 1,3-dioxane 1, read-out: σ1 affinity K i) is given as 19 nM and the Ki [6, 12] is given as 6 ± 1 nM. For the same compound, the Ki [7] was 4200 nM and the “antiallodynic activity in vivo” value [9] was “high antiallodynic activity”.
For `Cc1cc(OCCN2CCOCC2)nn1-c1ccc2ccccc2c1` [S1RA, reference compound], the IC50 [8] is listed as > 10000 nM and the Ki ([10]; S1RA) is listed as 17 ± 7 nM.
In the case of `CCCN(CCC)CCc1ccc(OC)c(OCCc2ccccc2)c1` [NE‐100, reference compound], the IC50 [8] is given as > 10000 nM and the Ki ([10]; NE-100) is given as 1.3 nM.
In the case of `CCN1CC[C@H](CCNCCCc2ccccc2)C[C@@H]1c1ccccc1` [19b, cis‐N‐(2‐(1‐Ethyl‐2‐phenylpiperidin‐4‐yl)ethyl)‐3‐phenylpropan‐1‐amine], the Ki ([1]; σ1 affinity K i±SEM (n=3)) is reported as 2400 nM and the “preference for the σ2 receptor over the σ1 receptor” value [2] is reported as 7 fold.
In the case of `c1ccc(CNCCC2CCCC(c3ccccc3)C2)cc1` (stereo not drawn) [compound 3], the logD [3] is listed as 3.25 ± 0.02, the Ki [6, 12] is listed as 0.61 ± 0.1 nM and the “σ1 : σ2 selectivity” value ([6]; lead compounds 1–3) is listed as 80. The Ki [7] was 49 ± 31 nM.
In the case of `Cc1ccc(S(=O)(=O)N2CCC(CCNCCCc3ccccc3)CC2c2ccccc2)cc1` (stereo not drawn) [13b, cis‐ and trans‐N‐(3‐Phenylpropyl)‐2‐(2‐phenyl‐1‐tosylpiperidin‐4‐yl)ethan‐1‐amine], the “σ1 : σ2 selectivity” value [1] is reported as 2 and the Ki ([1]; σ1 affinity K i±SEM (n=3)) is reported as 291 ± 139 nM.
For `CN1CCC(CCN2CCN(c3ccccc3)CC2)CC1c1ccccc1` (stereo not drawn) [22a, cis‐ and trans‐1‐(2‐(1‐Methyl‐2‐phenyl‐ piperidin‐4‐yl)ethyl)‐4‐phenylpiperazine], the “σ1 : σ2 selectivity” value [1] was 59, the Ki [1, 11] was 27 ± 11 nM and the Ki ([1]; σ1 affinity K i±SEM (n=3)) was < 27 nM. It also gave a Ki [2] of 1600 nM and an IC50 ([8]; Homo sapiens, DU-145) of 4000 nM.
In the case of `Cc1ccc(S(=O)(=O)N2CCC(CCNCc3ccccc3)CC2c2ccccc2)cc1` (stereo not drawn) [13a, cis‐ and trans‐N‐Benzyl‐2‐(2‐phenyl‐1‐tosyl‐piperidin‐ 4‐yl)ethan‐1‐amine], the “σ1 : σ2 selectivity” value [1] is reported as 13, the Ki ([1]; σ1 affinity K i±SEM (n=3)) is reported as 57 ± 21 nM and the melting point is reported as 79 °C.
With `CC(C)=CCN1CC[C@]2(C)c3cc(O)ccc3C[C@H]1[C@H]2C` [(+)‐pentazocine, reference compound] the “Inhibition of cell confluency IC50 ± SD” value ([5]; A427 cells, last time point (approx. 5 d), n = 3) was “no effect”.
